Measurements as given in PubChem BioAssay AID256 (DTP/NCI, 2004).
Inconclusive results and toxic doses are left out. How the source made its calls: active means survival T/C of 150% or more; inactive means T/C below 125% in these data.

Tested on: CD2F1 mice, L1210 leukemia ip, survival T/C
Experiment: NCI In Vivo Anticancer Drug Screen. Data for tumor model L1210 Leukemia (intraperitoneal) in CD2F1 (CDF1) mice
Conditions: endpoint: mean survival time, higher = longer survival
Summary of the method: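 Compound-dosed mice with transplantable tumor versus matched vehicle controls; endpoint ratio T/C reported.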

[1] = dose: 100.0 mg/kg/injection, schedule: Q04DX003 (ip), vehicle: saline with Tween-80
[2] = dose: 200.0 mg/kg/injection, schedule: Q04DX003 (ip), vehicle: saline with Tween-80
[3] = dose: 400.0 mg/kg/injection, schedule: Q04DX003 (ip), vehicle: saline with Tween-80

Measured: T/C

CC(C)CSCC1OC(n2cnc3c(N)nccc32)C(O)C1O (centres undefined)
inactive: dose: 3.13 mg/kg/injection, schedule: Q03HX024 (ip), vehicle: distilled water + Tween-80 100 % of control | dose: 6.25 mg/kg/injection, schedule: Q03HX024 (ip), vehicle: distilled water + Tween-80 105 % of control | dose: 12.5 mg/kg/injection, schedule: Q01DX005 (ip), vehicle: distilled water + Tween-80 107 % of control | dose: 12.5 mg/kg/injection, schedule: Q03HX024 (ip), vehicle: distilled water + Tween-80 96 % of control | dose: 25.0 mg/kg/injection, schedule: Q01DX005 (ip), vehicle: distilled water + Tween-80 115 % of control | dose: 25.0 mg/kg/injection, schedule: Q03HX024 (ip), vehicle: distilled water + Tween-80 100 % of control | dose: 50.0 mg/kg/injection, schedule: Q01DX005 (ip), vehicle: distilled water + Tween-80 100 % of control | dose: 50.0 mg/kg/injection, schedule: Q03HX024 (ip), vehicle: distilled water + Tween-80 96 % of control | dose: 100.0 mg/kg/injection, schedule: Q01DX005 (ip), vehicle: distilled water + Tween-80 88 % of control | dose: 100.0 mg/kg/injection, schedule: Q03HX024 (ip), vehicle: distilled water + Tween-80 86 % of control

O=P1(O)c2ccccc2Nc2ccccc21
inactive: dose: 50.0 mg/kg/injection, schedule: Q01DX009 (ip), vehicle: Klucel (hydroxypropylcellulose) (HPC) 104 % of control | dose: 100.0 mg/kg/injection, schedule: Q01DX009 (ip), vehicle: Klucel (hydroxypropylcellulose) (HPC) 93 % of control | dose: 200.0 mg/kg/injection, schedule: Q01DX009 (ip), vehicle: Klucel (hydroxypropylcellulose) (HPC) 108 % of control

Oc1ccccc1/C=N/c1nc(-c2ccccc2)cs1
inactive: dose: 100.0 mg/kg/injection, schedule: Q01DX001 (ip), vehicle: saline with Tween-80 86 % of control | dose: 200.0 mg/kg/injection, schedule: Q01DX001 (ip), vehicle: saline with Tween-80 107 % of control | dose: 400.0 mg/kg/injection, schedule: Q01DX001 (ip), vehicle: saline with Tween-80 93 % of control

COC(=O)C1(C)CCCC2(C)C1CCC1(O)C2CC2OC2(C(C)C)C1O (centres undefined)
inactive: dose: 100.0 mg/kg/injection, schedule: Q01DX009 (ip), vehicle: saline with Tween-80 102 % of control | [1] 97 % of control | dose: 200.0 mg/kg/injection, schedule: Q01DX009 (ip), vehicle: saline with Tween-80 96 % of control | [2] 93 % of control | dose: 400.0 mg/kg/injection, schedule: Q01DX009 (ip), vehicle: saline with Tween-80 98 % of control | [3] 87 % of control

COC12C(COC(N)=O)C3=C(C(=O)C(C)=C(NC4CONC4=O)C3=O)N1CC1NC12 (centres undefined)
inactive: dose: 1.5 mg/kg/injection, schedule: Q01DX001 (ip), vehicle: water 97 % of control | dose: 3.0 mg/kg/injection, schedule: Q01DX001 (ip), vehicle: water 98 % of control | dose: 6.0 mg/kg/injection, schedule: Q01DX001 (ip), vehicle: water 95 % of control | dose: 12.0 mg/kg/injection, schedule: Q01DX001 (ip), vehicle: water 98 % of control | dose: 24.0 mg/kg/injection, schedule: Q01DX001 (ip), vehicle: water 97 % of control | dose: 50.0 mg/kg/injection, schedule: Q01DX001 (ip), vehicle: distilled water + Tween-80 112 % of control | dose: 100.0 mg/kg/injection, schedule: Q01DX001 (ip), vehicle: distilled water + Tween-80 114 % of control

O=S1(=O)CCCCC1
inactive: dose: 37.5 mg/kg/injection, schedule: Q01DX009 (ip), vehicle: saline 98 % of control | dose: 75.0 mg/kg/injection, schedule: Q01DX001 (ip), vehicle: saline 104 % of control | dose: 75.0 mg/kg/injection, schedule: Q01DX009 (ip), vehicle: saline 98 % of control | dose: 75.0 mg/kg/injection, schedule: Q04DX003 (ip), vehicle: saline 93 % of control | dose: 150.0 mg/kg/injection, schedule: Q01DX001 (ip), vehicle: saline 96 % of control | dose: 150.0 mg/kg/injection, schedule: Q01DX009 (ip), vehicle: saline 98 % of control | dose: 150.0 mg/kg/injection, schedule: Q04DX003 (ip), vehicle: saline 96 % of control | dose: 300.0 mg/kg/injection, schedule: Q01DX001 (ip), vehicle: saline 95 % of control | dose: 300.0 mg/kg/injection, schedule: Q04DX003 (ip), vehicle: saline 100 % of control

Cc1ccc(NC(=O)Nc2ccccc2F)cc1NC(=O)Nc1ccccc1F
inactive: [1] 100 % of control | [2] 104 % of control | [3] 100 % of control

O=P(NC1CCCCC1)(NC1CCCCC1)NC1CCCCC1
inactive: dose: 50.0 mg/kg/injection, schedule: Q04DX003 (ip), vehicle: saline with Tween-80 93 % of control | [1] 90 % of control | [2] 91 % of control
